The values below come from EPA's ToxValDB 9.5.

The subject of data set [1] is Rattus norvegicus. Conditions: oral.
The next data set relates to Homo sapiens. The settings on record: clinical.
Data set [2] deals with Rattus norvegicus. Conditions: oral, diet.
Data set [3] concerns Rattus norvegicus. Conditions: oral. This is another data set of the same source.
The test system of data set [4] is Rattus norvegicus.
Data set [5] has as its system Rattus norvegicus. Conditions: developmental; oral; diet; Fetus: Fetotoxicity.
The subject of data set [6] is Rattus norvegicus. The source holds these as a separate data set.
A further data set deals with Canidae. Conditions: oral, M/F, Beagle; for LOEL / NOEL: duration: 12 months, capsule, Decreased bodyweight gains & peripheral redness.
A further data set has as its system Oryctolagus sp. Conditions: acute; dermal; occlusive; New Zealand.
In data set [7] the test system is Rattus norvegicus. Conditions: Hershberger; duration: 10 days; oral; gavage; Sprague-Dawley; inactive + Negative + Negative + neither + negative.
The mark [8] stands for this setting: reproduction developmental, Long-Evans, Micromelia, ectromelia, curved femur and microfetalis.
Where [9] appears, read: developmental, F, reduced delayed hypersensitivity response.
Where [10] appears, read: chronic, diet, M/F, kidney toxicity.
Where [11] appears, read: subchronic, duration: 90 days, oral, diet, Sprague-Dawley.
[12] abbreviates: chronic, duration: 2 years, diet, M/F, reduced body weight (males), inflammatory foci in kidneys of females.

Molecules are shown by their SMILES. Converted amounts (≈) assume the structure as drawn. “And” between values parts separate entries of the source, which are not always exact repeats. Equal values may be shown once.

In the data set with Rattus norvegicus [1] (setting [8]), `CCCSc1ccc2nc(NC(=O)OC)[nH]c2c1` [Albendazole] came in with an LOEL of 10 mg/kg-day and an NOEL of 5 mg/kg-day.
With `O=S=O` [Sulfur dioxide], the LOAEL – broadly, the lowest tested level that showed an adverse finding – in the data set with Homo sapiens (duration: 1 days, inhalation, M/F, respiratory) was determined as 0.262 mg/m3.
Turning to `[I-].[Na+]` [Sodium iodide], the no-observed-adverse-effect level (NOAEL) (commonly the highest dose or exposure tested at which no adverse effect was seen) in the data set with Homo sapiens (duration: 14 days, oral, M/F, endocrine) worked out at 0.01 mg/kg-day.
Take `Oc1ccc(Cl)cc1Cl` [2,4-Dichlorophenol]: the no observed adverse effect level (NOAEL) with Rattus norvegicus [2] (subchronic, duration: 90 days, M/F, Fischer 344, Clinical Observation: Hunched posture Rough hair coats + Body Weight Changes: decrease + Food Consumption: decrease, (palatability decrease…) was determined as 480 mg/kg-day. For the same compound, the LOAEL in the data set on Rattus norvegicus [3] (setting [9]) amounted to 3 mg/kg-day; in the data set on Rattus norvegicus [4] (subchronic, duration: 13 weeks, oral, drinking water, M/F, Sprague-Dawley, Whole Body Effects), 3 mg/kg-day. Further, in the data set on Rattus norvegicus [3] (setting [9]), the NOEL came to 0.3 mg/kg-day.
For `OCCO` [Ethylene glycol], the NOAEL is 150 mg/kg-day in the data set with Rattus norvegicus [2] (chronic, duration: 16 weeks, M, Wistar, Deaths + Body Weight Changes: Mean body weight decrease + Food Consumption: decrease + Water Consumption: increase + Urinalysis: SG decrease…); 150 mg/kg-day in the data set on Rattus norvegicus [2] (chronic, duration: 16 weeks, M, Wistar, Water Consumption: increase + Urinalysis: SG decrease, VOL increase + Absolute Organ Weight: Kidney increase + Relative Organ Weight: Kidney…); 23 mg/m3 in the data set with Homo sapiens (duration: 30 days, inhalation, M, respiratory). In addition, the LOAEL with Rattus norvegicus [3] (setting [10]) was determined as 1000 mg/kg-day. For the same compound, the NOEL in the data set with Rattus norvegicus [3] (setting [10]) and in the data set with Rattus norvegicus [5] was 200 mg/kg-day in each case.
With `Clc1cccc(Cl)c1Cl` [1,2,3-Trichlorobenzene], the no-observed-adverse-effect level (NOAEL) in the data set on Rattus norvegicus [6] (developmental, duration: 10 days, oral, gavage, Sprague-Dawley) came out at 600 mg/kg-day; in the data set on Rattus norvegicus [6] (reproduction developmental, duration: 10 days, oral, gavage, F, Sprague-Dawley) it was 150 mg/kg-day; with Rattus norvegicus [6] (setting [11]), 9.6 mg/kg-day; in the data set on Rattus norvegicus [4] (subchronic, duration: 13 weeks, oral, diet, M, Sprague-Dawley, Whole Body Effects, Hepatic), 7.7 mg/kg-day. The compound also displayed an LOAEL with Rattus norvegicus [6] (setting [11]) of 96 mg/kg-day.
With `CC[C@H]1OC(=O)C[C@@H](O)[C@H](C)[C@@H](O[C@@H]2O[C@H](C)[C@@H](O)[C@H](N(C)C)[C@H]2O)[C@@H](CCN2C[C@H](C)C[C@H](C)C2)C[C@@H](C)C(=O)/C=C/C(C)=C/[C@@H]1CO[C@@H]1O[C@H](C)[C@@H](O)[C@@H](OC)[C@H]1OC` [Tilmicosin], in the data set with Canidae (chronic), the LOEL was 12 mg/kg-day and the NOEL was 4 mg/kg-day. In the data set on Canidae, this compound had an LOEL of 12 mg/kg-day and an NOEL of 4 mg/kg-day.
As to `CN1C(=O)[C@]23C[C@H]4C(C)(C)[C@]5(CNc6c5ccc5c6OC=CC(C)(C)O5)C[C@@]41CN2CC[C@@]3(C)O`, the LOAEL with Canidae (subchronic, duration: 90 days, capsule / gavage, Protruding nictitating membranes, dilated pupils, eye redness and decreased indirect pupillary light response) came to 0.1 mg/kg-day.
As to `[Cl][Sb]([Cl])[Cl]` [Antimony trichloride], the LOAEL in the data set with Rattus norvegicus [4] (chronic, duration: 2 years, oral, drinking water, M/F, Long-Evans, Whole Body Effects) is 0.35 mg/kg-day.
With `N#CCCCCC#N` [Hexanedinitrile], the median lethal dose (LD50) (as a rule, the dose expected to kill half of the subjects tested) in the data set with Oryctolagus sp. was 2130 mg/kg; in the data set with Rattus norvegicus [6] (acute, oral, gavage, Crl:CD(SD)), 138 mg/kg and 301 mg/kg. The 50% lethal concentration (LC50) – broadly, the concentration lethal to half of the exposed cells or organisms – in the data set with Rattus norvegicus [6] (acute, inhalation, Sprague-Dawley) came to 1.71 µg/mL (≈ 15.8 µM). In addition, the NOAEL in the data set with Rattus norvegicus [6] (developmental, duration: 14 days, oral, gavage, Sprague-Dawley) was > 80 mg/kg-day; in the data set on Rattus norvegicus [4] (subchronic, duration: 13 weeks, inhalation, whole body, M/F, Crl:CD(SD), Hematologic) it was 31 mg/m3.
For `CC[C@@]1([C@@H]2O[C@@H]([C@H]3O[C@@](O)(CO)[C@H](C)C[C@@H]3C)C[C@@H]2C)CC[C@H]([C@]2(C)CC[C@]3(C[C@H](O)[C@@H](C)[C@@H]([C@@H](C)[C@@H](OC)[C@H](C)C(=O)O)O3)O2)O1` [Monensin], in the data set with Rattus norvegicus [1] (chronic, duration: 2 years, diet, M/F, Wistar, Decreased bodyweight gain), the NOAEL stood at 1.14 mg/kg-day.
In the data set on Rattus norvegicus [4] (short-term, duration: 28 days, oral, gavage, M, Sprague-Dawley), `O=[N+]([O-])c1cc(C(F)(F)F)ccc1Cl` [4-Chloro-3-nitrobenzotrifluoride] displayed an LOAEL of 1 mg/kg-day.
Compound `COC[C@H]1O[C@@H](OC2OC[C@@H]3O[C@]4(O[C@H]3[C@H]2OC(=O)C(C)C)O[C@H](C)[C@@](O)(C(C)=O)[C@@H]2OCO[C@H]24)[C@@H](OC)[C@@H](O)[C@@H]1O[C@@H]1O[C@H](C)[C@H](OC)[C@H](O[C@H]2C[C@@]3(C)OC4(C[C@@H](O)[C@H](O[C@H]5C[C@@H](O)[C@H](OC(=O)c6c(C)c(Cl)c(O)c(Cl)c6OC)[C@@H](C)O5)[C@@H](C)O4)O[C@@H]3[C@@H](C)O2)[C@H]1O` (some centres undefined) [Avilamycin] gave an NOEL with Rattus norvegicus [1] (reproduction developmental, duration: 2 years, diet, M/F, Sprague-Dawley, no effects) of 150 mg/kg-day.
The compound `ClCCCCl` [1,3-Dichloropropane] yielded an NOAEL with Rattus norvegicus [4] (subchronic, duration: 90 days, oral, gavage, M/F, Sprague-Dawley, Hepatic, Urinary) of 50 mg/kg-day.
`CC1(C)C(C=C(Cl)Cl)C1C(=O)OC(C#N)c1ccc(F)c(Oc2ccccc2)c1` (centres undefined) [Cyfluthrin]: the LEL with Rattus norvegicus [3] (setting [12]) came to 7.5 mg/kg-day. Moreover, the NOEL in the data set with Rattus norvegicus [3] (setting [12]) was 2.5 mg/kg-day; in the data set with Rattus norvegicus [7], 20 mg/kg-day; in the data set with Rattus norvegicus [1] (chronic, duration: 2 years, diet, M/F, Wistar, Depressed bodyweight gain), 2 mg/kg-day; with Rattus norvegicus [1] (dietary / carcinogenicity, duration: 2 years, feed, M/F, Wistar, Depressed bodyweight gain) it was 2 mg/kg-day.
